Values joined by “and” are separate entries in the source; they are usually repeats but may differ in a detail not shown here. Identical values can stand only once.
Columns and labels:
[1] = target: T1, OATP2B1 (Homo sapiens, UniProt O94956); assay: 3H-valsartan uptake inhibition in HEK-293-OATP2B1 cells; details: IC50 OATP2B1, valsartan uptake, substrate 3H-valsartan, three independent experiments
T1 sequence (O94956 1-709): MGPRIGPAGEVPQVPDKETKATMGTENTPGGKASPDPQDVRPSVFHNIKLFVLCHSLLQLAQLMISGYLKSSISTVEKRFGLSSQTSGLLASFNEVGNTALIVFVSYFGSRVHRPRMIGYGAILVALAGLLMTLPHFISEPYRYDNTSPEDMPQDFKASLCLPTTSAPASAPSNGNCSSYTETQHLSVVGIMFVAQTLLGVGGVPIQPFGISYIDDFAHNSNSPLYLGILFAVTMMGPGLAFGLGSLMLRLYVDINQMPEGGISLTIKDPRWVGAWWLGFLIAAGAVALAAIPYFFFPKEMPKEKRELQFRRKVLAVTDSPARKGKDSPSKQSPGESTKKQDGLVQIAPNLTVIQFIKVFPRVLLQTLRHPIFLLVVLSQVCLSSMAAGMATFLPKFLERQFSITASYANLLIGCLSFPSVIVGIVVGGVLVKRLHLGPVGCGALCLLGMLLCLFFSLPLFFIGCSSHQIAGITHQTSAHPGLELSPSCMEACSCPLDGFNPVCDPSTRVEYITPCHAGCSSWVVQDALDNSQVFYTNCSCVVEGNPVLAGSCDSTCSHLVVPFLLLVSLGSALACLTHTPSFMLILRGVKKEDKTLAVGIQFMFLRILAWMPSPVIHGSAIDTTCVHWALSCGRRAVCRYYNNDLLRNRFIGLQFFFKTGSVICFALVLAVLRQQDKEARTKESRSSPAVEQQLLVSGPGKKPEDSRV
Experimental: (§2) The uptake transporter assay was performed as reported previously with minor modifications [15]. A day before the uptake assay, Isoplate 96-well plates were coated with poly-D-lysine in PBS with calcium and magnesium and washed with PBS. […] An assay mixture of ^3H-estrone sulfate, a known inhibitor of OATP2B1, or an antioxidant was prepared and incubated in a 37 °C incubator for 10 min. The cells were washed with ice-cold HBSS three times and incubated with MicroScint fluid on a shaker for 1 h for cell lysis. Radioactivity was measured by liquid scintillation counting with a MicroBeta^2® microplate counter. […] On the day of experiment, cells were washed twice with 0.4 mL of HBSS per well and then pre-incubated for 10–20 min in 0.4 mL of HBSS. […] Uptake of ^3H-valsartan was stopped after 15 min by washing three times with ice-cold HBSS. Cells were lysed in 750 µL of lysis buffer (0.1 N NaOH and 0.1% SDS in double-distilled water) per well while shaking for 60 min. A total of 690 µL of the lysate from each well was then added to 2.5 mL of EcoLite scintillation fluid. The radioactivity was determined on a LS6500 Scintillation Counter (Beckman Coulter). Protein concentration was measured with a Pierce™ BCA protein assay kit. The radioactivity in each well was corrected for protein concentration. All values were determined in triplicate, and the final values are expressed as % uptake relative to negative control (1% DMSO).
(§3) Antioxidants were screened at a concentration of 200 μM.

[2] = target: T1, OATP2B1; assay: Uptake transporter assay, 3H-estrone sulfate uptake in HEK-293-OATP2B1 cells; details: for % Uptake of 3H-ES OATP2B1: antioxidant 200 µM, uptake with DMSO set as 100%, mean ± SD, three replicates, HEK-293-OATP2B1 cells
Experimental: as §2, §3

[3] = target: T2, BCRP (Homo sapiens, UniProt Q9UNQ0); assay: Vesicular transport assay, 3H-CCK8 uptake in BCRP membrane vesicles; assay type: biochemical; set-up: purchased ThermoFisher Scientific GM0008; host or cells: Sf9 membrane vesicles; details: for % Uptake of 3H-CCK8 BCRP: antioxidant 200 µM, uptake with DMSO set as 100%, mean ± SD, three replicates, membrane vesicles; for inhibition at 20 min, 200 µM: human, Sf9 membrane vesicles overexpressing human BCRP, pH 7, probe 3H-CCK8, 3H-CCK8
T2 sequence (Q9UNQ0 1-655): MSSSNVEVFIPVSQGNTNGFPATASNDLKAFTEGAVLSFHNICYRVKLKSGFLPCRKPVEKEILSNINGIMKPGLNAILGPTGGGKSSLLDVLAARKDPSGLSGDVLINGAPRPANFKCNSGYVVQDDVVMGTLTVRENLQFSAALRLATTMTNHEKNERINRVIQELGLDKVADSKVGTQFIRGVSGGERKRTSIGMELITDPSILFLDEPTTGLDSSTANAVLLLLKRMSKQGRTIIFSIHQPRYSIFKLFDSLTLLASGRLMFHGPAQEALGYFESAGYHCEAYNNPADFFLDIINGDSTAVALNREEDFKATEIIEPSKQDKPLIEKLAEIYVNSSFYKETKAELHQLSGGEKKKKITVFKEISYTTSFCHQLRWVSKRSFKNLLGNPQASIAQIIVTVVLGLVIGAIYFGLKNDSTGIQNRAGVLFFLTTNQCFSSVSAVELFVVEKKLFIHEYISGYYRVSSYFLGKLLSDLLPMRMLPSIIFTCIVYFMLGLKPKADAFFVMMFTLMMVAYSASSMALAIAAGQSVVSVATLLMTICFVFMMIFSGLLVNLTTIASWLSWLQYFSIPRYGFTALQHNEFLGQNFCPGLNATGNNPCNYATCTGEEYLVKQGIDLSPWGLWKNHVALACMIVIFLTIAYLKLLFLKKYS
Experimental: (§1) The vesicular transport assay was performed using Spodoptera frugiperda 9 (Sf9) membrane vesicles overexpressing human P-gp or BCRP, as reported previously with minor modifications. In brief, Isoplate 96-well flat-bottom white plates were preincubated with HBSS containing 0.5 mg/mL BSA on an orbital shaker in a 37 °C incubator at 90 rpm for 60 min followed by washing with HBSS. The assay mixture (75 µL/well) contained a probe substrate and either vehicle control, a known inhibitor of P-gp or BCRP, or an antioxidant, in vesicle uptake buffer (50 mM MOPS-Tris, pH 7.0 + 70 mM KCl + 7.5 mM MgCl2) prewarmed to 37 °C. After addition of the assay mixture, 5 μL/well (5 μg/μL stock concentration of the vesicles) of vesicles overexpressing human P-gp or BCRP was added. Uptake assays were initiated by adding 20 μL of either 25 mM adenosine triphosphate (ATP) or 25 mM adenosine monophosphate (AMP) to a final concentration of 5 mM. Plates were incubated at 37 °C for 20 min with orbital shaking (90 rpm). After 20 min, the uptake was quenched by adding 150 μL of ice-cold wash buffer (40 mM MOPS-Tris, pH 7.0 + 70 mM KCl) to each well, and the mixture was transferred to a 96-well filtration plate. Vacuum was applied, and the vesicles were washed three times with wash buffer. Vesicles were then lysed with 100 µL of MicroScint-20.

[4] = target: T3, P-gp (Homo sapiens, UniProt P08183); assay: Vesicular transport assay, 3H-NMQ uptake in P-gp membrane vesicles; assay type: biochemical; details: for % Uptake of 3H-NMQ P-gp: antioxidant 200 µM, uptake with DMSO set as 100%, mean ± SD, three replicates, membrane vesicles; for inhibition at 20 min, 200 µM: human, Sf9 membrane vesicles overexpressing human P-gp, pH 7, probe 3H-NMQ, 3H-NMQ
T3 construct: purchased ThermoFisher Scientific GM0015; host or cells: Sf9 membrane vesicles
Experimental: as §1

[5] = Table S1; source not stated; cited from earlier work
[6] = Estimation of intestinal luminal concentration (Igut), dose/250 mL; details: estimated from maximum oral amount (AP 10 mg, BHA 8 mg) in 250 mL intestinal fluid
Experimental: Igut is intestinal luminal concentration estimated as dose/250 mL. The Igut concentration was estimated using the following equation: Igut=A÷MW×V×10^6 where Igut is the estimated intestinal luminal concentration (µM), A is the amount of antioxidant in an oral dosage (mg), MW is the molecular weight, and V is the volume of intestinal fluid, i.e., 250 mL.

[7] = tested on: P-gp; set-up: method as in PMID 19944162; details: cited from earlier work

T3 sequence (P08183 whole entry): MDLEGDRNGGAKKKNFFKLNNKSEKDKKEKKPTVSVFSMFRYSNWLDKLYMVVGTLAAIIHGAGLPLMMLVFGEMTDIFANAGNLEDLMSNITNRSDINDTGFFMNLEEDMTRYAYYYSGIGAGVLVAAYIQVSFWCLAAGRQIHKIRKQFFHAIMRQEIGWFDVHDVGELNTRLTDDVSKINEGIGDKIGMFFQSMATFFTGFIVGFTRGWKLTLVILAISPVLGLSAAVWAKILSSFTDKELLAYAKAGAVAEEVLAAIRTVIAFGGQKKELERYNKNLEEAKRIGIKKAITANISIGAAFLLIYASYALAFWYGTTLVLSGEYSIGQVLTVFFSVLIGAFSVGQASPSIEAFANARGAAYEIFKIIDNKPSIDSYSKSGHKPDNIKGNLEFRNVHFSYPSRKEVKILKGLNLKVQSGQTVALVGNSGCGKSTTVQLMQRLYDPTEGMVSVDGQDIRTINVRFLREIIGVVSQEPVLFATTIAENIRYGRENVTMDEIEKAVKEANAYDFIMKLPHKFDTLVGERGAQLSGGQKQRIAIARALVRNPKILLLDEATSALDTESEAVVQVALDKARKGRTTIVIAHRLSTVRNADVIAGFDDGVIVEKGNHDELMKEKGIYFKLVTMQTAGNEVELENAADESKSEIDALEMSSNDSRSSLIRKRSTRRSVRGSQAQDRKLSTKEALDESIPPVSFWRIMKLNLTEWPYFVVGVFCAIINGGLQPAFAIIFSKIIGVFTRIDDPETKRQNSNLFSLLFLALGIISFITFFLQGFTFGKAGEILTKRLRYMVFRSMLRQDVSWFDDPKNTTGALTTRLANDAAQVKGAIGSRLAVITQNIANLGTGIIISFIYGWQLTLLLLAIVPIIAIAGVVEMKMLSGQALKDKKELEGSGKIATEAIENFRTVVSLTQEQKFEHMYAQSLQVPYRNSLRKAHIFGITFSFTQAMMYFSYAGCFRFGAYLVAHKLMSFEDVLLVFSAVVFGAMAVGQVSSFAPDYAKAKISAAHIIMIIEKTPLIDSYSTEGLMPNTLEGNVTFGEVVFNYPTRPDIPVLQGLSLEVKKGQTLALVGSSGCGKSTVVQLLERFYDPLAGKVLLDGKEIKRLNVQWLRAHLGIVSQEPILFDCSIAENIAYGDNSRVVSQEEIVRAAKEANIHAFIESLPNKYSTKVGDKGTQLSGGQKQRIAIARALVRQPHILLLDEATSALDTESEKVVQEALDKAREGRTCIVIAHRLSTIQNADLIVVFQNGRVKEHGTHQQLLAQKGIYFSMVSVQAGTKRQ

| Compound | IC50 [1] | IC50 ([2]; IC50 OATP2B1, substrate 3H-estrone sulfate, mean ± SD of three independent experiments) | IC50 ([2]; IC50 with preincubation, OATP2B1 expressing cells pre-incubated 30 minutes, mean ± SD of three independent experiments) | Effect of 30 min pre-incubation on inhibition potency ([2]; OATP2B1-expressing cells pre-incubated for 30 min) | % Uptake of 3H-ES OATP2B1 [2] | IC50 at 10 min ([2]; human, HEK-293 cells that express OATP2B1, probe 3H-estrone sulfate, IC50 without preincubation, OATP2B1 expressing cells, mean ± SD of three independent experiments) | inhibition at 10 min, 200 µM ([2]; human, HEK-293 cells that express OATP2B1, probe 3H-estrone sulfate, Inhibition of OATP2B1, 200 µM, 3H-estrone sulfate) | % Uptake of 3H-CCK8 BCRP [3] | inhibition at 20 min, 200 µM [3] | % Uptake of 3H-NMQ P-gp [4] | inhibition at 20 min, 200 µM [4] | LogP [5] | Max Intestinal Conc (µM) in 250 mL Fluid [6] | inhibition at 10 min, 200 µM ([2]; human, HEK-293 cells that express OATP2B1, probe 3H-estrone sulfate) | P-gp inhibition in ATPase assays [7] |
| --- | --- | --- | --- | --- | --- | --- | --- | --- | --- | --- | --- | --- | --- | --- | --- |
| CCCCCCCCCCCCCCCC(=O)OC[C@H](O)[C@H]1OC(=O)C(O)=C1O [Ascorbyl palmitate (AP), Ascorbyl palmitate] | 26 µM and 25.5 µM | 23 ± 10 µM | 95 ± 11.7 µM | did not further affect their inhibition potency | 28.3 ± 11.2% | 159 ± 65.9 µM | > 50% | 50.9 ± 9.9% | < 50% | 86.9 ± 12.4% | < 50% | 6 | 96.5 µM |  |  |
| CC(C)c1cc2c(c(O)c1O)[C@@]1(C(=O)O)CCCC(C)(C)[C@@H]1CC2 [Carnosic acid] |  |  |  |  | 18.8 ± 5.6% |  |  | 4.5 ± 4.8% | ≥ 50% | 0.0 ± 10.1% | ≥ 50% | 4.9 |  | ≥ 50% | identified as a P-gp inhibitor |

From publication PMC11124870, “Effect of Antioxidants in Medicinal Products on Intestinal Drug Transporters” (Pharmaceutics, 2024)
